In brackets after ≈: the same amount, converted by molar mass. Several values for one entry are separate records, joined by “and”; a condition that tells them apart may be missing. Identical values can stand only once. Like-named read-outs stand apart in the source and are kept apart here.
Experiments:
[1] = target: PfLysRS (Plasmodium falciparum, UniProt Q8IDJ8); settings: cited from earlier work
[2] = target: Schistosoma mansoni (Sm) lysyl-tRNA synthetase; settings: cited from earlier work
[3] = tested on: blood and liver stages of Plasmodium; settings: cited from earlier work
[4] = cited from earlier work
[5] = target: T1, Plasmodium falciparum lysyl t-RNA synthetase (Pf-KRS1) (Plasmodium falciparum, UniProt Q8IDJ8); experiment: Pf-KRS1 inhibition biochemical assay (Kinase-Glo, ATP depletion)
T1 construct: Pf KRS1-; made in house; host or cells: E. coli BL21 (DE3)
T1 sequence (Q8IDJ8 entry or part of it, looked up, natural form): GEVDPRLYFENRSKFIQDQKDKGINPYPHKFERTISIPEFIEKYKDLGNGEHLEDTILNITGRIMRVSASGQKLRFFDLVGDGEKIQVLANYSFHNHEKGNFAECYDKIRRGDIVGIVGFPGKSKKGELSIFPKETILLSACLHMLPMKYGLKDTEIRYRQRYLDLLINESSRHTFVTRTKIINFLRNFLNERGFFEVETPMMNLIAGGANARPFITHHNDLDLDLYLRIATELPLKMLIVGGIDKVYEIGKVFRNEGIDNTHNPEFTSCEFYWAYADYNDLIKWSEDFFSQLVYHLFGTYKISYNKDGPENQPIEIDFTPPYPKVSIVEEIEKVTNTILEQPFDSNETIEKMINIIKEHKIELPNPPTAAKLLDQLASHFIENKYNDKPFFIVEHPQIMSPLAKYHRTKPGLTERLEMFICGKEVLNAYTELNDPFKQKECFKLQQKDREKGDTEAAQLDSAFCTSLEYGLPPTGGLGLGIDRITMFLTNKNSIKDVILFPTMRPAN
Method in brief: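 Recombinant Pf-KRS1 (75 nM working concentration) in HEPES/KOH/MgCl2/KCl buffer with 3 μM ATP, 60 μM L-lysine, 0.4 mg/ml yeast tRNA and pyrophosphatase; compounds at 50 μM–2.5 nM final. Reaction ran 5 h at room temperature, then remaining ATP was read by Kinase-Glo luminescence. IC50 came from nonlinear fits of % inhibition against controls.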

[6] = tested on: Cryptosporidium parvum; experiment: In vitro Crytosporidium inhibition assay; assay type: cell-based; settings: for EC50: Cryptosporidium parvum, read-out: Cryptosporidium parvum pEC50 (converted)
From the text: Assay Method for Measurement of In Vitro Inhibition of Crytosporidium.
These experiments were run in accordance with the method of Besssoff et. al. Antimicrob. Agents Chemother. 2013, 57:1804-1814. Results from these experiments are provided in the Experimental Results hereinafter.

[7] = tested on: Leishmania donovani; experiment: Leishmania donovani intramacrophage inhibition assay (Ld-INMAC); assay type: cell-based; settings: intramacrophage amastigotes in THP-1 cells, read-out: Ld-INMAC pEC50 (converted)
Procedure: Assay Method for Measurement of In Vitro Inhibition of Leishmania donovani.
These experiments were run in accordance with the method as detailed herein and results from these experiments are provided in the Experimental Results hereinafter.
The intramacrophage Leishmania assay was performed as described in de Rycker et al (Antimicrob Agents Chemother, 2013 July; 57(7):2913-22. doi: 10.1128/AAC.02398-12). Briefly, 1 μl of compound was pre-dispensed into 384 well sterile intermediary plates. For single point screening, amphotericin B was added to all wells of column 24 as a positive control (final concentration 2 μM) and DMSO to column 23. For potency determinations, ten-point, one in three dilution curves were created with the highest concentration being 50 μM and on each plate a control curve of amphotericin B was included. Controls were as follows: columns 11 and 12: DMSO, columns 23 and 24: amphotericin B (final concentration 2 μM). To the intermediary plates, 100 μl of THP-1 media was added and plates were shaken for >5 min to ensure complete mixing. THP-1 cells (8,000 per well, 50 μl) were plated into black clear-bottom 384 well plates (Corning) in presence of 10 nM PMA. After 20 min at room temperature, the plates were incubated at 37° C. under 5% CO2 in a humidified incubator for 75 h. The cells were then washed with […] sterile phosphate buffered saline (PBS) supplemented with 1 mM CaCl2, 0.5 mM MgCl2, 0.1% (w/v) bovine serum albumin (PBS-A) and amastigotes were added to all wells at a multiplicity of infection of 5 (40,000 amastigotes per well). After 40 min at room temperature, plates were returned to the incubator. Amastigotes were incubated in the presence of macrophages for 16 h. Any remaining extracellular amastigotes were subsequently removed with an overflow wash of 1 ml PBS-A per well (wash buffer is being aspirated from the top of the well as it is being dispensed) followed by addition of 25 μl of the compound pre-dilutions using a Matrix Hydra DT pipetting station. The final dilution of each compound was 200-fold. Plates were incubated for 72 h and then washed (250 μl PBS-A) and fixed (4% (v/v) formaldehyde-PBS, 30 min, room temperature). After fixation, the wells were washed with 250 μl PBS, stained (10 μg/ml DAPI, 0.4 μg ml-1 HCS Cellmask Deep Red in PBS+0.1% (v/v) Triton X-100, 30 min, room temperature) and washed with 250 μl PBS. Finally, PBS+0.05% (v/v) thimerosal was added to the wells, the plates were sealed and imaged on a high-content microscope (GE IN Cell 1000 or GE IN Cell 2000) using a 10× objective. Image analysis was carried out with GE IN Cell Analyzer 1000 Workstation using the “Multi Target Analysis” module. […]

[8] = tested on: THP-1 cells; experiment: THP-1 host cell count in intramacrophage Leishmania assay; assay type: cell-based; settings: Homo sapiens, host cell toxicity, read-out: THP1 pEC50 (converted)
Procedure: The intramacrophage Leishmania assay was performed as described in de Rycker et al (Antimicrob Agents Chemother, 2013 July; 57(7):2913-22. doi: 10.1128/AAC.02398-12). Briefly, 1 μl of compound was pre-dispensed into 384 well sterile intermediary plates. For single point screening, amphotericin B was added to all wells of column 24 as a positive control (final concentration 2 μM) and DMSO to column 23. For potency determinations, ten-point, one in three dilution curves were created with the highest concentration being 50 μM and on each plate a control curve of amphotericin B was included. Controls were as follows: columns 11 and 12: DMSO, columns 23 and 24: amphotericin B (final concentration 2 μM). To the intermediary plates, 100 μl of THP-1 media was added and plates were shaken for >5 min to ensure complete mixing. THP-1 cells (8,000 per well, 50 μl) were plated into black clear-bottom 384 well plates (Corning) in presence of 10 nM PMA. After 20 min at room temperature, the plates were incubated at 37° C. under 5% CO2 in a humidified incubator for 75 h. The cells were then washed with […] sterile phosphate buffered saline (PBS) supplemented with 1 mM CaCl2, 0.5 mM MgCl2, 0.1% (w/v) bovine serum albumin (PBS-A) and amastigotes were added to all wells at a multiplicity of infection of 5 (40,000 amastigotes per well). After 40 min at room temperature, plates were returned to the incubator. Amastigotes were incubated in the presence of macrophages for 16 h. Any remaining extracellular amastigotes were subsequently removed with an overflow wash of 1 ml PBS-A per well (wash buffer is being aspirated from the top of the well as it is being dispensed) followed by addition of 25 μl of the compound pre-dilutions using a Matrix Hydra DT pipetting station. The final dilution of each compound was 200-fold. Plates were incubated for 72 h and then washed (250 μl PBS-A) and fixed (4% (v/v) formaldehyde-PBS, 30 min, room temperature). After fixation, the wells were washed with 250 μl PBS, stained (10 μg/ml DAPI, 0.4 μg ml-1 HCS Cellmask Deep Red in PBS+0.1% (v/v) Triton X-100, 30 min, room temperature) and washed with 250 μl PBS. Finally, PBS+0.05% (v/v) thimerosal was added to the wells, the plates were sealed and imaged on a high-content microscope (GE IN Cell 1000 or GE IN Cell 2000) using a 10× objective. Image analysis was carried out with GE IN Cell Analyzer 1000 Workstation using the “Multi Target Analysis” module. Settings for segmentation were as follows: nuclei: minimum area: 142.384 μm^2, sensitivity: 81, method: top-hat; cells: characteristic area: 2500 μm^2, sensitivity: 60, method: multiscale top-hat; organelles (amastigotes): granule size 1-3, 3 scales, sensitivity: 90, detection in entire cell. […]

[9] = tested on: Leishmania donovani; experiment: Ld-cAxAm-TP-pMIC assay; assay type: cell-based; settings: read-out: Ld-cAxAm-TP-pMIC pEC50 (converted)
[10] = tested on: Hep G2; experiment: Hep G2 in-vitro cytotoxicity assay; assay type: cell-based; settings: Homo sapiens, HepG2, read-out: Hs HEPG2 pEC50 (converted)
Method in brief: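 Hep G2 human hepatocyte carcinoma cells serve as a general mammalian cell toxicity indicator, following the Mersch-Sundermann procedure.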

[11] = tested on: Plasmodium falciparum; experiment: Anti-malarial in vivo efficacy, Plasmodium falciparum SCID mouse model; settings: 20 mg/kg, 4 days
From the text: Measurement of Anti-Malarial In Vivo Efficacy The in vivo measurement of the potential efficacy of compounds of formula (I) in a malarial model has been carried out. These in vivo experiments were run in accordance with the method published in Jimenez-Diaz, M. B. et al., Antimicrob. Agents Chemother. 53, 4533-4536, (2009). Results from these experiments are provided in the Experimental Results hereinafter.

[12] = tested on: Plasmodium falciparum strain 3D7; experiment: Plasmodium falciparum 3D7 in vitro growth inhibition (SYBRgreen I); assay type: cell-based; settings: Plasmodium falciparum, 3D7; read-out: pEC50 for Pf 3D7 (converted)
Method in brief: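 10-point, 1-in-3 dilution series from a top concentration of 50 μM; parasite growth read as SYBRgreen I fluorescence on double-stranded DNA (ex 485/em 528 nm). EC50 = concentration causing 50% parasite death, from at least 3 independent experiments.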

[13] = tested on: M. tuberculosis H37Rv; experiment: In vitro inhibition of M. tuberculosis H37Rv (MIC, resazurin); assay type: cell-based; settings: Mycobacterium tuberculosis, read-out: Mtb MIC
[14] = tested on: Cryptosporidium parvum; experiment: Anti-Cryptosporidium in vivo efficacy, NOD SCID gamma mouse model; settings: 50 mg/kg, twice a day (bid), 4 days
From the text: Measurement of Anti-Cryptosporidium In Vivo Efficacy
The in vivo measurement of the potential efficacy of compounds of formula (I) in two cryptosporidium models has been carried out.
The cryptosporidiosis NOD SCID gamma mouse model were run as follows: Male NOD SCID gamma mice (NOD.Cg-Prkdc^scid Il2rg^tm1Wjl/SzJ, Jackson Labs) were infected approximately 2 weeks post weaning with 10^5 C. parvum Iowa strain oocysts by oral gavage. Four mice were used per experimental group. This establishes a chronic, asymptomatic infection of the small intestine, cecum, and biliary tree. Fecal parasite shedding is monitored by quantitative PCR to amplify C. parvum DNA. One week after infection (which is the timing with which shedding becomes uniformly detected), compounds are dosed by oral gavage based. Treatment continued for four days total. Fecal oocyst shedding is reported on day 1 (7 days after initial infection with sample taken just prior to the first dose of compound) and day 5 (1 day after completion of the last dose).

[15] = read-out: Pf-KRS pIC50 (converted)

Sequence of PfLysRS (Q8IDJ8 1-583): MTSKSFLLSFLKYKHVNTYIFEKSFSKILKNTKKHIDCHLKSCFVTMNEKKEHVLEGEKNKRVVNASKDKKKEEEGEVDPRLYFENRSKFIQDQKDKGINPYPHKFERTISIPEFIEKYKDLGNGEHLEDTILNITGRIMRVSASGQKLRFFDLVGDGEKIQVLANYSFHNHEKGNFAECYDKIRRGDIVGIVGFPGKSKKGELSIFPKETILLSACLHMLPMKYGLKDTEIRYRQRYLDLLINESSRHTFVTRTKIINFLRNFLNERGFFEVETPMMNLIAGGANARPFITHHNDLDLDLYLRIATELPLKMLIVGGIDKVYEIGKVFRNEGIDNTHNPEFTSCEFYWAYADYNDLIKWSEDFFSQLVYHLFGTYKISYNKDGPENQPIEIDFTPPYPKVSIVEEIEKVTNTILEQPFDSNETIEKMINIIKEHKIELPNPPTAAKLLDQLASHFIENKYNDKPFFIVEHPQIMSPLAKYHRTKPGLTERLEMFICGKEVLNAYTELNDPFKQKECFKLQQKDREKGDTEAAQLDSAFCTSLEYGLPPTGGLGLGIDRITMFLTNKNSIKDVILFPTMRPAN

Row | SMILES | IC50 [5, 15] | EC50 [6] [nM] | EC50 [10] [nM] | EC50 [12] [nM] | % Reduction in parasitaemia [14] [%] | other results
1 | C[C@H]1CCC[C@H](C[C@H]2Cc3cc(O)cc(O)c3C(=O)O2)O1 [Cladosporin, cladosporin] | – | – | – | – | – | selectivity vs HsLysRS [1]: more than 100 fold; IC50 ([2]; Sharma et al., read-out: Sm LysRS IC50): 97 nM; selectivity vs HsLysRS ([2]; Sm LysRS vs HsLysRS): more than 60 fold; inhibition of blood and liver stages of Plasmodium [3]: nanomolar inhibitor; bioavailability [4]: poorly bioavailable
2 | O=C(NCC1(O)CCC(F)(F)CC1)c1cc(=O)c2cc(F)ccc2o1 [Example 54, N-[(4,4-difluoro-1-hydroxy-cyclohexyl)methyl]-6-fluoro-4-oxo-chromene-2-carboxamide] | 126 nM and 251 nM | 1260 | 50100 | – | – | Cryptosporidium parvum pEC50 [6]: 5.8; EC50 [7]: 31600 nM; EC50 [8]: 50100 nM; EC50 [9]: 12600 nM; % Reduction in parasitaemia [11]: 99.2%
3 | O=C(NCC1(O)CCCCC1)c1cc(=O)c2cc(F)cc(O)c2o1 [Example 74, 6-fluoro-8-hydroxy-N-((1-hydroxycyclohexyl)methyl)-4-oxo-4H-chromene-2-carboxamide] | 50.1 nM | 39.8 | 31600 | 63.1 | 92.5 | MIC [13]: 25 µM (≈ 8.38 µg/mL)
4 | O=C(NCC1(O)CCCCC1)c1cc(=O)c2ccc(F)c(O)c2o1 [Example 77, 7-fluoro-8-hydroxy-N-((1-hydroxycyclohexyl)methyl)-4-oxo-4H-chromene-2-carboxamide] | – | 126 | 39800 | 126 | 99.6 | IC50 ([5]; Pf-KRS pIC50): 100 nM
5 | O=C(NCC1CCCCC1)c1cc(=O)c2ccc(F)c(O)c2o1 [Example 78, N-(cyclohexylmethyl)-7-fluoro-8-hydroxy-4-oxo-4H-chromene-2-carboxamide] | 79.4 nM | 1 | 20000 | 100 | 99.4 | –
